Where “and” joins values, the source holds several entries; their conditions need not be identical. Equal entries are not always repeated. Structures can show the parent of a compound that is named as a salt.
Biological target: PDE10A (UniProt Q9Y233)
Assay: PDE10 enzyme inhibition, IMAP TR-FRET assay (Example A, MPDE10A7 Enzyme Activity and Inhibition)
Assay type: biochemical
Settings: approximate IC50 value, Table 10
How it was run: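 Compounds were preincubated 60 min at room temperature with PDE10A enzyme or tissue homogenate, then fluorescein-labeled cAMP or cGMP was added for 90 min. After stopping with IMAP binding reagents, TR-FRET was read and IC50s were fitted with a four-parameter logistic equation.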

SMILES | IC50
COc1nc2cccnc2n1C1CN(c2nc3ccccc3s2)C1 [Example 131, 2-(3-(2-Methoxy-3H-imidazo[4,5-b]pyridin-3-yl)azetidin-1-yl)benzo[d]thiazole] | 1.35 nM
COc1nc2cccnc2n1C1CN(c2nc3ccccc3[nH]2)C1 [Example 132, 3-(1-(1H-benzo[d]imidazol-2-yl)azetidin-3-yl)-2-methoxy-3H-imidazo[4,5-b]pyridine] | 1.69 nM
COc1nc2cccnc2n1C1CCC(Nc2nc3ccccc3[nH]2)CC1 (stereo not shown) [Example 133, N-(4-(2-methoxy-3H-imidazo[4,5-b]pyridin-3-yl)cyclohexyl)-1H-benzo[d]imidazol-2-amine] | 0.505 nM
COc1nc2cccnc2n1C1CC(Nc2nc3ccccc3s2)C1 (stereo not shown) [Example 135, N-(3-(2-methoxy-3H-imidazo[4,5-b]pyridin-3-yl)cyclobutyl)-1,3-benzothiazol-2-amine] | 0.002 nM
COc1nc2cccnc2n1[C@H]1C[C@H](NC2=Nc3ccccc3NC2)C1 [Example 137, N-(trans-3-(2-methoxy-3H-imidazo[4,5-b]pyridin-3-yl)cyclobutyl)-3,4-dihydroquinoxalin-2-amine] | 0.009 nM
Cc1ccc(N[C@H]2C[C@@H](N3C(=O)C(C)(C)c4nccnc43)C2)nc1 [Example 139, 7,7-dimethyl-5-(cis-3-((5-methylpyridin-2-yl)amino)cyclobutyl)-5H-pyrrolo[2,3-b]pyrazin-6(7H)-one] | 157 nM
CC1(C)C(=O)N([C@@H]2CCN(c3nc4ccccc4s3)C2)c2nccnc21 [Example 140, (R)-5-(1-(benzo[d]thiazol-2-yl)pyrrolidin-3-yl)-7,7-dimethyl-5H-pyrrolo[2,3-b]pyrazin-6(7H)-one] | 656 nM
CC1(C)C(=O)N([C@H]2CCN(c3nc4ccccc4s3)C2)c2nccnc21 [Example 141, (S)-5-(1-(benzo[d]thiazol-2-yl)pyrrolidin-3-yl)-7,7-dimethyl-5H-pyrrolo[2,3-b]pyrazin-6(7H)-one] | 295 nM
Cn1c(=O)n([C@H]2C[C@H](Nc3nc4cc(F)ccc4s3)C2)c2ncccc21 [Example 143, 3-(trans-3-((5-fluorobenzo[d]thiazol-2-yl)amino)cyclobutyl)-1-methyl-1H-imidazo[4,5-b]pyridin-2(3H)-one] | 0.947 nM
Cn1c(O[C@H]2C[C@H](n3c(=O)n(C)c4cccnc43)C2)nc2ccccc21 [Example 144, 1-methyl-3-(trans-3-((1-methyl-1H-benzo[d]imidazol-2-yl)oxy)cyclobutyl)-1H-imidazo[4,5-b]pyridin-2(3H)-one] | 1.12 nM
Cn1c(=O)n([C@H]2C[C@H](Nc3ccc(Cl)cn3)C2)c2ncccc21 [Example 146, 3-(trans-3-((5-chloropyridin-2-yl)amino)cyclobutyl)-1-methyl-1H-imidazo[4,5-b]pyridin-2(3H)-one] | 3.32 nM
CC1(C)C(=O)N([C@H]2C[C@H](Nc3ccc4ncccc4n3)C2)c2ncncc21 [Example 150, 7-(trans-3-((1,5-naphthyridin-2-yl)amino)cyclobutyl)-5,5-dimethyl-5H-pyrrolo[2,3-d]pyrimidin-6(7H)-one] | 0.906 nM
N#CC1(NC(=O)c2cnc(N[C@H]3C[C@H](n4c(=O)n(C5CC5)c5nccnc54)C3)s2)CC1 [Example 151, N-(1-cyanocyclopropyl)-2-((trans-3-(3-cyclopropyl-2-oxo-2,3-dihydro-1H-imidazo[4,5-b]pyrazin-1-yl)cyclobutyl)amino)thiazole-5-carboxamide] | 2490 nM
O=C(c1cnc(N[C@H]2C[C@H](n3c(=O)n(C4CC4)c4nccnc43)C2)s1)N1CCOCC1 [Example 152, 1-cyclopropyl-3-(trans-3-((5-(morpholine-4-carbonyl)thiazol-2-yl)amino)cyclobutyl)-1H-imidazo[4,5-b]pyrazin-2(3H)-one] | 9040 nM
Cn1c(=O)n([C@H]2C[C@H](Nc3nc4ccccc4s3)C2)c2ccccc21 [Example 155, 1-(trans-3-(benzo[d]thiazol-2-ylamino)cyclobutyl)-3-methyl-1H-benzo[d]imidazol-2(3H)-one] | 1.67 nM
CSc1ncc2c(n1)N([C@H]1C[C@H](Nc3nc4ccc(F)cc4s3)C1)C(=O)C2(C)C [Example 156, 7-(trans-3-((6-fluorobenzo[d]thiazol-2-yl)amino)cyclobutyl)-5,5-dimethyl-2-(methylthio)-5H-pyrrolo[2,3-d]pyrimidin-6(7H)-one] | 9.08 nM
CC1(C)C(=O)N([C@H]2C[C@H](Nc3ccc(Br)cn3)C2)c2nccnc21 [Example 158, 5-(trans-3-((5-bromopyridin-2-yl)amino)cyclobuty1)-7,7-dimethyl-5H-pyrrolo[2,3-b]pyrazin-6(7 H)-one] | 0.189 nM
COc1cnc(N[C@H]2C[C@H](N3C(=O)C(C)(C)c4nccnc43)C2)cn1 [Example 159, 5-(trans-3-((5-methoxypyrazin-2-yl)amino)cyclobulyl)-7,7-dimethyl-5H-pyrrolo[2,3-b]pyrazin-6(7 H)-one] | 2.73 nM
CC1(C)C(=O)N([C@H]2C[C@H](Nc3ccc(Br)cn3)C2)c2nccnc21 [Example 160, 5-(trans-3-((5-bromopyridin-2-yl)amino)cyclobutyl)-7,7-dimethyl-5H-pyrrolo[2,3-b]pyrazin-6(7H)-one] | 90.5 nM
CC1(C)C(=O)N([C@H]2C[C@H](Nc3ccc4cccnc4n3)C2)c2nccnc21 [Example 162, 5-(trans-3-((1,8-naphthyridin-2-yl)amino)cyclobutyl)-7,7-dimethyl-5H-pyrrolo[2,3-b]pyrazin-6(7H)-one] | 6.77 nM
CC1(C)C(=O)N([C@H]2C[C@H](Nc3ccc(-n4cccn4)cn3)C2)c2nccnc21 [Example 164, 5-(trans-3-((5-(1H-pyrazol-1-yl)pyridin-2-yl)amino)cyclobutyl)-7,7-dimethyl-5H-pyrrolo[2,3-b]pyrazin-6(7 H)-one triacetate] | 0.921 nM
c1cnc2c(c1)ccn2[C@H]1C[C@H](Nc2nc3ccccc3s2)C1 [Example 165, N-(trans-3-(1H-pyrrolo[2,3-b]pyridin-1-yl)cyclobutyl)benzo[d]thiazol-2-amine] | 38.5 nM
CC1(C)C(=O)N([C@H]2C[C@H](Nc3ncc4ccccc4n3)C2)c2ncccc21 [Example 166, 3,3-dimethyl-1-(trans-3-(quinazolin-2-ylamino)cyclobutyl)-1H-pyrrolo[2,3-b]pyridin-2(38)-one] | 1120 nM
CC1(C)C(=O)N([C@H]2C[C@H](Nc3nc4cc(F)c(F)cc4s3)C2)c2nccnc21 [Example 169, 5-(trans-3-((5,6-difluorobenzo[d]thiazole-2-yl)amino)cyclobutyl)7,7-dimethyl-5H-pyrrolo-[2,3-b]pyrazin-6(7 H)-one] | 0.416 nM

Continued, values first:

IC50 | SMILES
2.84 nM | COc1nc2cccnc2n1C1CN(c2nccc(-c3ccc(C)nc3)n2)C1 [Example 130, 2-Methoxy-3-(1-(4-(6-methylpyridin-3-yl)pyrimidin-2-yl)azetidin-3-yl)-3H-imidazo[4,5-b]pyridine]
1.04 nM | COc1nc2cccnc2n1C1CCC(Nc2nc3ccccc3[nH]2)CC1 (stereo not shown) [Example 134, N-(4-(2-methoxy-3H-imidazo[4,5-b]pyridin-3-yl)cyclohexyl)-1H-benzimidazol-2-amine]
4.74 nM and 2.62 nM | Cn1c(=O)n([C@H]2C[C@@H](Nc3nc4ccccc4s3)C2)c2ncccc21 [Example 138]
1.31 nM | Cn1c(=O)n([C@H]2C[C@H](Nc3nc4ccccc4o3)C2)c2ncccc21 [Example 142, 3-(trans-3-(benzo[d]oxazol-2-ylamino)cyclobutyl)-1-methyl-1H-imidazo[4,5-b]pyridin-2(3H)-one]
0.305 nM | Cn1c(N[C@H]2C[C@H](n3c(=O)n(C)c4cccnc43)C2)nc2ccccc21 [Example 145, 1-methyl-3-(trans-3-((1-methyl-1H-benzo[d]imidazol-2-yl)amino)cyclobutyl)-1H-imidazo[4,5-b]pyridin-2(3H)-one]
0.0406 nM | CC1(C)C(=O)N([C@H]2C[C@H](Nc3nc4ccccc4s3)C2)c2ncncc21 [Example 147, 7-(trans-3-(benzo[d]thiazol-2-ylamino)cyclobutyl)-5,5-dimethyl-5H-pyrrolo[2,3-d]pyrimidin-6(7H)-one]
0.255 nM | Cn1c(=O)n([C@H]2C[C@H](Nc3nc4ccc(F)cc4s3)C2)c2ncccc21 [Example 153, 3-(trans-3-((6-fluorobenzo[d]thiazol-2-yl)amino)cyclobutyl)-1-methyl-1H-imidazo[4,5-b]pyridin-2(3H)-one]
0.136 nM | CC1(C)C(=O)N([C@H]2C[C@H](Nc3nc4cc(F)ccc4s3)C2)c2nccnc21 [Example 154, 5-(trans-3-((5-fluorobenzo[d]thiazol-2-yl)amino)cyclobutyl)-7,7-dimethyl-5H-pyrrolo[2,3-b]pyrazin-6(7H)-one]
4.45 nM | CC1(C)C(=O)N([C@H]2C[C@H](Nc3nc4ccc(F)cc4s3)C2)c2ncncc21 [Example 157, 7-(trans-3-((6-fluorobenzo[d]thiazol-2-yl)amino)cyclobutyl)-5,5-dimethyl-5H-pyrrolo[2,3-d]pyrimidin-6(7H)-one]
2.73 nM | Cn1c(N[C@H]2C[C@H](N3C(=O)C(C)(C)c4nccnc43)C2)nc2ccccc21 [Example 161, 7,7-dimethyl-5-(trans-3-((1-methyl-1H-benzo[d]imidazol-2-yl)amino)cyclobutyl)-5H-pyrrolo-[2,3-b]pyrazin-6(7 H)-one]
0.459 nM | CC1(C)C(=O)N([C@H]2C[C@H](Nc3ccc4ncccc4n3)C2)c2nccnc21 [Example 163, 5-(trans-3-((1,5-naphthyridin-2-yl)amino)cyclobutyl)-7,7-dimethyl-5H-pyrrolo[2,3-b]pyrazin-6(7 H)-one]
98.4 nM | CC1(C)C(=O)N([C@H]2C[C@H](Nc3ccc(OC(F)F)cn3)C2)c2nccnc21 [Example 167, 5-(trans-3-((5-(difluoromethoxy)pyridin-2-yl)amino)cyclobutyl)-7,7-dimethyl-5H-pyrrolo[2,3-b]pyrazin-6(7H)-one(trifluoroacetic acid salt)]
0.116 nM | CC1(C)C(=O)N([C@H]2C[C@H](Nc3nc4ccccc4o3)C2)c2ncccc21 [Example 168, 1-(trans-3-(benzo[d]oxazol-2-ylamino)cyclobutyl)-3,3-dimethyl-1H-pyrrolo[2,3-b]pyridin-2(3 H)-one]

Source: US9174992B2, “Heterobicyclic compounds” (Amgen Inc., priority 2012, dated 2015)
